In this experiment the test system is Y-1 (ATCC Accession No. CCL 79) cells. Nature of the experiment: GEM (Gene Expression Microarray) expression profile of treated vs control Y1 cells, Incyte mouse cDNA array. It counts as cell-based. As to conditions: 16 hours; for number of common genes upregulated by FSH, 024 & forskolin: Y1 cells, FSH 10^-9 M, 024 1 uM, Forskolin 1 uM. Here is the method:
A mouse cDNA array from Incyte, Inc. was used to analyze the expression profile of Y-1 (ATCC Accession No. CCL 79) cells. This transcriptional profile analysis led to the identification of the FSH or FSH Mimetic stimulated genes of the invention.
Y1 cells were incubated with Ham's F-10 Nutrient Mixture Media supplemented with glutamine (1%), G418 geneyticin (80 ug/ml), penicillin-streptomycin (1%), fetal horse serum (15%), and fetal bovine serum (2.5%) and grown to confluency. Confluent cells were then exposed to FSH at 10^-9 M (See Table 1) or FSH Mimetic 024 at 1 uM (see Table 3), Forskolin at 1 uM (See Table 4) and all three agents (i.e., FSH at 10^−9 M, FSH Mimetic 024 at 1 uM and Forskolin at 1 uM—See Table 2) for 16 hours. Total RNA was isolated from control or treated cells with ULTRASPEC™ RNA from Biotech Laboratories, Inc. All media and supplements were obtained from Gibco BRL Life Technologies.
The GEM (Gene Expression Microarray) technology uses the following steps to discover differences in gene expression between two messenger RNA (mRNA) samples. Small samples of cDNA were deposited on a glass surface and bonded to the glass. Subsequently, large portions from one half of the DNA's double strands were removed in order to activate the individual elements of the array, preparing them to react and bind to their uniquely matched DNA counterparts in the cells being tested.
Two mRNA samples were prepared and color labeled, since the GEM technology uses a color coding technique to discover the differences in gene expression between two mRNA samples. […]
The two fluorescent probe samples were simultaneously applied to a single microarray, where they competitively react with the arrayed cDNA molecules. […] The intensity of the fluorescence at each array element is proportional to the expression level of that gene in the sample. […] The ratio of the two fluorescent intensities provided a quantitative measurement of the relative gene expression level in the two cell samples. […]

Turning to `C=C[C@@]1(C)CC(=O)[C@]2(O)[C@@]3(C)[C@@H](O)CCC(C)(C)[C@@H]3[C@H](O)[C@H](OC(C)=O)[C@@]2(C)O1` [Forskolin, reference compound], the “number of common genes upregulated by FSH, 024 & forskolin” value is 64 common genes upregulated by FSH, 024 & forskolin. As for Follicle Stimulating Hormone [FSH], the “number of common genes upregulated by FSH, 024 & forskolin” value is 64 common genes upregulated by FSH, 024 & forskolin. The “number of genes regulated in Y1 cells” value (FSH at 10^-9 M) is given as “FSH regulats 189 genes in Y1 cells”.

Values taken from US20030162692A1, “Follicle stimulating hormone stimulated genes and uses thereof” (priority 2000, published 2003).
